{"source": "paper PMC7933930", "about": "“Development of a small molecule that corrects misfolding and increases secretion of Z α1‐antitrypsin” (EMBO Molecular Medicine, 2021)", "key": {"[1]": {"test_system": "CHO inducible cells expressing wild‐type M α1‐antitrypsin", "assay": "Tunicamycin sensitivity, cell viability (Cell Counting Kit‐8), cells expressing M α1‐antitrypsin", "type": "cell-based", "conditions": "10 μM GSK716, cells expressing M α1‐antitrypsin, tunicamycin 36 h", "protocol": "Figure 2 GSK716 inhibits polymerisation of Z α1‐antitrypsin in cell models of disease • A GSK716 was added to CHO‐TET‐ON‐Z‐A1AT cells (Ordóñez et al, 2013) with simultaneous induction of Z α1‐antitrypsin expression using doxycycline, and polymer load was quantified with the 2C1 monoclonal antibody that is specific to pathological polymers of α1‐antitrypsin (Miranda et al, 2010). […] Data were normalised to vehicle and a control compound from the GSK716 series at saturating concentration. […] It induced an approximately threefold increase in secreted levels of Z α1‐antitrypsin compared with vehicle control. This was apparent even after polymers had been allowed to form. Scale bar: 100 µm. Data presented as mean ± SD, n = 8 (secretion) and n = 6 (polymer inhibition). • E CHO tetracycline‐inducible cells expressing Z α1‐antitrypsin were induced with 0.5 μg/ml doxycycline for 48 h and treated with 10 μM GSK716. […] For every time point, NP‐40‐soluble and NP‐40‐insoluble fractions were separated and immunoprecipitated with the 2C1 mAb and resolved by 4–12% w/v SDS–PAGE and α1‐antitrypsin detected by immunoblotting. […] Cell viability was measured by Cell Counting Kit‐8. […] Samples were resolved by 4–12% w/v acrylamide SDS–PAGE and detected by autoradiography. • H The graphs show the effect of GSK716 on intracellular and extracellular Z α1‐antitrypsin (mean ± SEM, n = 2). […]"}, "[2]": {"biological_target": "Histamine H1 (Homo sapiens, UniProt P35367)", "sequence (P35367 whole entry)": "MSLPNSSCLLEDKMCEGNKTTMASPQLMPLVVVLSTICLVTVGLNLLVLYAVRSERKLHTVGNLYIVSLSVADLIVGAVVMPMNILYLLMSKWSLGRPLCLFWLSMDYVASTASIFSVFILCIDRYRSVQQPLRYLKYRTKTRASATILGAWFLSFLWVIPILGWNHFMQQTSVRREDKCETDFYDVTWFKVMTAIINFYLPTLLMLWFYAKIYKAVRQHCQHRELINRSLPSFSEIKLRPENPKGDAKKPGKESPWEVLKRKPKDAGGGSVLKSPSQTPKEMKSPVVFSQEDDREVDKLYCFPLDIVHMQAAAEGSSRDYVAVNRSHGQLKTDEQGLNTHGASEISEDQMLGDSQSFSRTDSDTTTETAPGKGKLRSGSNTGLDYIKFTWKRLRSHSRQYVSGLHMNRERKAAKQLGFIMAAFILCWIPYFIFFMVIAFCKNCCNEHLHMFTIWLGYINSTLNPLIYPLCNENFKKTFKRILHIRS", "assay": "Off‐target panel: Histamine H1 (DRX)", "type": "cell-based", "conditions": "Antagonist, read-out: Mean (PXC50) (converted)", "protocol": "GSK716 selectivity and PK properties were profiled in order to investigate the suitability of GSK716 for progression into in vivo studies and the potential for taking it forward as a clinical candidate for testing in humans. Since GSK716 results in loss of inhibitory activity of α1‐antitrypsin, the effect of the compound was assessed on other closely related serpins. […] Furthermore, there were no off‐target effects in a panel of assays considered predictive of known safety liabilities that precluded further development of GSK716 (Table EV1)."}, "[3]": {"biological_target": "Z α1‐antitrypsin (Homo sapiens, UniProt P01009, E366K)", "sequence (P01009 25-418 E366K)": "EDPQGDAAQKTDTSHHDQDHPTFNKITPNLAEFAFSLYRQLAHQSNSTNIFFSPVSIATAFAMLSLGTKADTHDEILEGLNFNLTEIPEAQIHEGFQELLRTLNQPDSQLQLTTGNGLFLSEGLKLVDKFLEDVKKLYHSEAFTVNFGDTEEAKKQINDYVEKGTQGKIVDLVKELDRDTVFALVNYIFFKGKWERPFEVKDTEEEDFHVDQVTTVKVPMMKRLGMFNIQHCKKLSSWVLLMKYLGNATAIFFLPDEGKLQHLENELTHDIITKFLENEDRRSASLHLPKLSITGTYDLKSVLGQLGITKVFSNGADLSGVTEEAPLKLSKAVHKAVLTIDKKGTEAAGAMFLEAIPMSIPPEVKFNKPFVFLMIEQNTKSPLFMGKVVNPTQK", "assay": "Association kinetics by intrinsic tryptophan fluorescence (stopped flow), Z α1‐antitrypsin", "type": "binding", "design": "purified from the plasma of Z α1‐antitrypsin homozygotes; from tissue; host or cells: human plasma of Z α1-antitrypsin homozygotes", "text": "The shape of the curves and native mass spectrometry (not shown) are consistent with a single high‐affinity compound binding site. No binding of the fluorescent derivative to polymers of Z α1‐antitrypsin was observed, indicating conformational selectivity for the monomeric protein (Fig 1D). The rate of interaction of the compound with the target was monitored through changes in intrinsic tryptophan fluorescence (Dafforn et al, 1999); this property was used to determine the second‐order association rate constants for GSK716 binding to Z (4.1 × 10^4 M^−1 s^−1) and M α1‐antitrypsin (2.1 × 10^2 M^−1 s^−1; Fig 1E and F). […] Therefore, the selectivity of the compound for Z over M α1‐antitrypsin is dominated by the difference in the rate of association rather than dissociation.\nKinetic parameters of GSK716 binding to M, Z, S (Glu264Val) and Baghdad (Ala336Pro) (Haq et al, 2016) α1‐antitrypsin were measured by detecting intrinsic tryptophan fluorescence of the protein (excitation at 280 nm and detection of emission at 320 nm) on a stopped flow apparatus (Applied Photophysics) (Kim & Yu, 1996; Dafforn et al, 1999). A competition assay for binding to M α1‐antitrypsin and Z α1‐antitrypsin and Z α1‐antitrypsin polymers (Lomas et al, 1993; Irving et al, 2011; Haq et al, 2013), based on an Alexa488‐labelled analogue of GSK716 (A488‐GSK716), was used to determine the binding affinity of test compounds."}}, "data": [{"smiles": "CCC[C@@H](NC(=O)c1cccc2c1CC(=O)N2)[C@@H](O)c1cccc(F)c1C", "note": "[GSK716]", "values": [{"measurement": "survival with tunicamycin (cell viability)", "setting": "[1]", "value": "no effect"}, {"measurement": "IC50", "setting": "[2]", "value": 10, "unit": "µM"}, {"measurement": "time of change in Z α1‐antitrypsin fluorescence on association (faster than dead‐time of the apparatus)", "setting": "[3]; 10 µM GSK716, 0.2 mg/ml protein", "value": "< 10", "unit": "s"}, {"measurement": "koff", "setting": "[3]; Z α1‐antitrypsin, calculated from association rate constant and affinity, read-out: first‐order dissociation rate constant", "value": "6.1e-05", "unit": "s⁻¹"}, {"measurement": "kon", "setting": "[3]; Z α1‐antitrypsin, read-out: second‐order association rate constant", "value": 41000, "unit": "M⁻¹ s⁻¹"}]}]}
